# Measured values published in US9040563B2, “Dual inhibitors of farnesyltransferase and geranylgeranyltransferase I” (H. Lee Moffitt Cancer Center and Research Institute, Inc., priority 2010, dated 2015).
# Read-outs that look alike come from different tables or passages of the source.
# Assays:
# hFTase = hFTase (Homo sapiens, UniProt P49354+P49356); assay: In vitro hFTase inhibition: incorporation of [3H]FPP into recombinant H-Ras-CVLS; format: biochemical; conditions: for selectivity (ratio of GGTase-I to FTase IC50s): GGTase-I IC50 / hFTase IC50
# [1] = system: geranylgeranylation of Rap1A; assay: Whole cell inhibition of Rap1A processing (geranylgeranylation), immunoblot, oncogenic H-Ras-transformed NIH3T3 cells; format: cell-based, mouse; conditions: Mus musculus
# Method: (§1) In vitro inhibition assays for FTase and GGTase-I were conducted by measuring the incorporation of [^3H]FPP and [^3H]GGPP into recombinant H-Ras-CVLS and H-Ras-CVLL, respectively, as previously described (Vogt, et al., Protein geranylgeranylation, not farnesylation, is required for the G1 to S phase transition in mouse fibroblasts. Oncogene, 1996, 13, 1991-1999). The in vivo inhibition of farnesylation and geranylgeranylation was determined based on the level of inhibition by synthetic compounds of H-Ras and Rap1A processing, respectively (Sun, et al., Both farnesyltransferase and geranylgeranyltransferase I inhibitors are required for inhibition of oncogenic K-Ras prenylation but each alone is sufficient to suppress human tumor growth in nude mouse xenografts. Oncogene, 1998, 16, 1467-1473). […] The separated proteins were transferred to nitrocellulose and immunoblotted using an anti-Ras antibody (Y13-258) or an anti-Rap1A antibody (SantaCruz Biotechnology, Santa Cruz, Calif.), respectively. Antibody reactions were visualized using either peroxidase-conjugated goat anti-rat IgG or goat anti-rabbit IgG (Jackson ImmunoResearch, West Grove, Pa.) and an enhanced chemiluminescence detection system.
# (§2) Briefly, in vitro inhibition assays for hFTase and GGTase-I were carried out by measuring the incorporation of [^3H]FPP and [^3H]GGPP into recombinant H-Ras-CVLS and H-Ras-CVLL, respectively, as described previously (Vogt et al., Protein geranylgeranylation, not farnesylation, is required for G1 to S phase transition in mouse fibroblasts. Oncogene. 1996; 13:1991-1999). Whole cell inhibition of farnesylation and geranylgeranylation were determined based on the level of inhibition by synthetic compounds of H-Ras and Rap1A processing, respectively (Sun, et al., Both farnesyltransferase and geranylgeranyltransferase I inhibitors are required for inhibition of oncogenic K-Ras prenylation but each alone is sufficient to suppress human tumor growth in nude mouse xenografts. Oncogene. 1998; 16:1467-1473).
# farnesylation of H-Ras = assay: Whole cell inhibition of H-Ras processing (farnesylation), immunoblot, oncogenic H-Ras-transformed NIH3T3 cells; format: cell-based, mouse; conditions: Mus musculus, NIH3T3, whole cells, oncogenic H-Ras-transformed NIH3T3; n = 3 unless stated; read-out: H-Ras processing IC50
# Method: as §1, §2
# [2] = whole cells, oncogenic H-Ras-transformed NIH3T3, n = 3 unless stated, read-out: Rap1A processing IC50
Compound,selectivity (ratio of GGTase-I to FTase IC50s) (hFTase),"IC50 [1, 2] [µM]",further results
4-[{2-[Benzyl-(1-methyl-1H-imidazole-4-sulfonyl)-amino]-ethyl}-(1-methyl-1H-imidazol-4-ylmethyl)-amino]-benzamide [compound 13],>2,–,–
C=CCN(CCN(Cc1cncn1C)c1ccc(C#N)cc1)S(=O)(=O)c1cn(C)cn1 [1ab],>14,> 10,–
"Cn1cnc(S(=O)(=O)N(CCN(Cc2cncn2C)c2ccc(C#N)cc2)Cc2cccs2)c1 [1ak, [N-(Thiophen-2-ylmethyl), N-{2-[(4-cyanophenyl)-(3-methyl-3H-imidazol-4-ylmethyl)-amino]-ethyl}]1-methyl-1H-imidazole-4-sulfonamide]",2.6,> 10,–
Cc1ccccc1CN(CCN(Cc1cncn1C)c1ccc(C#N)cc1)S(=O)(=O)c1cn(C)cn1 [1ao],15,> 10,–
Cc1cccc(CN(CCN(Cc2cncn2C)c2ccc(C#N)cc2)S(=O)(=O)c2cn(C)cn2)c1 [1ap],12,> 10,–
Cc1ccc(CN(CCN(Cc2cncn2C)c2ccc(C#N)cc2)S(=O)(=O)c2cn(C)cn2)cc1 [1aq],–,–,"IC50 ([1]; NIH3T3, read-out: Rap1A processing IC50): > 10 µM"
Cn1cnc(S(=O)(=O)N(CCN(Cc2cncn2C)c2ccc(C#N)cc2)Cc2cccc(C#N)c2)c1 [1ar],–,> 10,–
Cn1cnc(S(=O)(=O)N(CCN(Cc2cncn2C)c2ccc(C#N)cc2)Cc2cccc(-c3ccccc3)c2)c1 [1at],2.4,> 10,–
Cn1cnc(S(=O)(=O)N(CCN(Cc2cncn2C)c2ccc(C#N)cc2)Cc2ccc(-c3ccccc3)cc2)c1 [1au],4.3,> 10,–
Cn1cnc(S(=O)(=O)N(CCN(Cc2cncn2C)c2ccc(C#N)cc2)Cc2ccc(-n3cccc3)cc2)c1 [1av],15,> 10,–
Cn1cncc1CN(CCN(Cc1ccccc1)S(=O)(=O)c1ccccc1)c1ccc(C#N)cc1 [1d],7.6,> 10,–
"Cn1cnc(S(=O)(=O)N(CCN(Cc2cncn2C)c2ccc(C#N)cc2Cl)CC2CCN(c3ncccn3)CC2)c1 [19a, [N-{2-[(2-Chloro-4-cyanophenyl)-(3-methyl-3H-imidazol-4-ylmethyl)-amino]-ethyl}, N-{N-(2-pyrimidinyl)-piperidin-4-ylmethyl}]1-methyl-1H-imidazole-4-sulfonamide]",>18,–,–
Cn1cnc(S(=O)(=O)N(CCN(Cc2cncn2C)c2ccc(C#N)nc2)CC2CCN(c3ncccn3)CC2)c1 [19b],>19,–,–
"Cn1cnc(S(=O)(=O)N(CCN(Cc2cncn2C)c2ccc(C#N)cn2)CC2CCN(c3ncccn3)CC2)c1 [19c, [N-{2-[(5-Cyanopyridin-2-yl)-(3-methyl-3H-imidazol-4-ylmethyl)-amino]-ethyl}, N-{N-(2-pyrimidinyl)-piperidin-4-ylmethyl}]1-methyl-1H-imidazole-4-sulfonamide]",>91,–,–
"Cn1cnc(S(=O)(=O)N(CCN(Cc2cncn2C)c2ncc(C#N)cn2)CC2CCN(c3ncccn3)CC2)c1 [19d, [N-{2-[(5-Cyanopyrimidin-2-yl)-(3-methyl-3H-imidazol-4-ylmethyl)-amino]-ethyl}, N-{N-(2-pyrimidinyl)-piperidin-4-ylmethyl}]1-methyl-1H-imidazole-4-sulfonamide]",>16,–,–
"Cn1cnc(S(=O)(=O)N(CCN(Cc2cncn2C)c2ccc(C#N)c(F)c2)CC2CCN(c3ncccn3)CC2)c1 [19e, [N-{2-[(3-Fluoro-4-cyanophenyl)-(3-methyl-3H-imidazol-4-ylmethyl)-amino]-ethyl}, N-{N-(2-pyrimidinyl)-piperidin-4-ylmethyl}]1-methyl-1H-imidazole-4-sulfonamide]",41,–,–
"Cn1cnc(S(=O)(=O)N(CCN(Cc2cncn2C)c2c(F)cc(C#N)cc2F)CC2CCN(c3ncccn3)CC2)c1 [19g, [N-{2-[(2,6-Difluoro-4-cyanophenyl)-(3-methyl-3H-imidazol-4-ylmethyl)-amino]-ethyl}, N-{N-(2-pyrimidinyl)-piperidin-4-ylmethyl}]1-methyl-1H-imidazole-4-sulfonamide]",>34,–,–
"Cn1cnc(S(=O)(=O)N(CCN(Cc2cncn2C)c2c(F)c(F)c(C#N)c(F)c2F)CC2CCN(c3ncccn3)CC2)c1 [19h, [N-{2-[(2,3,5,6-Tetrafluoro-4-cyanophenyl)-(3-methyl-3H-imidazol-4-ylmethyl)-amino]-ethyl}, N-{N-(2-pyrimidinyl)-piperidin-4-ylmethyl}]1-methyl-1H-imidazole-4-sulfonamide]",18,–,–
Cn1cnc(S(=O)(=O)N(CCCN(Cc2cncn2C)c2ccc(C#N)cc2)Cc2ccccc2)c1 [20a],11,–,–
Cn1cnc(S(=O)(=O)N(Cc2ccccc2)[C@@H]2CCC[C@@H]2N(Cc2cncn2C)c2ccc(C#N)cc2)c1 [20b],>10,–,–
Cn1cnc(S(=O)(=O)N(Cc2ccccc2)[C@H]2CC[C@@H](N(Cc3cncn3C)c3ccc(C#N)cc3)C2)c1 [20d],>15,–,–
Cn1cnc(S(=O)(=O)N(CCN(Cc2cncn2C)c2ccc(C#N)cc2)Cc2ccccc2)c1 [compound 1a],–,> 10,IC50 (farnesylation of H-Ras): 1.9 ± 1.2 µM
"Cn1cnc(S(=O)(=O)N(CCN(Cc2cncn2C)c2ccc(C#N)cc2)Cc2ccsc2)c1 [compound 1ai, [N-(Thiophen-3-ylmethyl), N-{2-[(4-cyanophenyl)-(3-methyl-3H-imidazol-4-ylmethyl)-amino]-ethyl}]1-methyl-1H-imidazole-4-sulfonamide]",14,> 10,–
"Cn1cnc(S(=O)(=O)N(CCN(Cc2cncn2C)c2ccc(C#N)cc2)Cc2ccco2)c1 [compound 1aj, [N-(Furan-2-ylmethyl), N-{2-[(4-cyanophenyl)-(3-methyl-3H-imidazol-4-ylmethyl)-amino]-ethyl}]1-methyl-1H-imidazole-4-sulfonamide]",15,> 10,–
Cn1cncc1CN(CCN(Cc1ccccc1)S(=O)(=O)c1ccccn1)c1ccc(C#N)cc1 [compound 1f],–,> 10,IC50 (farnesylation of H-Ras): 0.09 ± 0.06 µM
Cn1cnc(S(=O)(=O)N(CCN(Cc2cnc[nH]2)c2ccccc2)Cc2ccccc2)c1 [compound 3],1.6,> 10,"IC50 (hFTase; in vitro, average of three independent assays (n = 3) unless stated, errors are standard deviations): 6.3 ± 0.36 µM"
"Cn1cnc(S(=O)(=O)N(CCN(Cc2cncn2C)c2ccc(C(=O)OC(C)(C)C)cc2)Cc2ccccc2)c1 [compound 11, tert-Butyl 4-[{2-[benzyl-(1-methyl-1H-imidazole-4-sulfonyl)-amino]-ethyl}-(3-methyl-3H-imidazol-4-ylmethyl)-amino]-benzoate]",0.9,–,–
"Cn1cnc(S(=O)(=O)N(CCN(Cc2cncn2C)c2ccc(C(=O)O)cc2)Cc2ccccc2)c1 [compound 12, 4-[{2-[Benzyl-(1-methyl-1H-imidazole-4-sulfonyl)-amino]-ethyl}-(3-methyl-3H-imidazol-4-ylmethyl)-amino]-benzoic acid]",48,–,–
"Cn1cnc(S(=O)(=O)N(CCN(Cc2cncn2C)c2ccc(-c3ccccc3)cc2)Cc2ccccc2)c1 [compound 14, [N-Benzyl, N-{2-[(biphenyl-4-yl)-(3-methyl-3H-imidazol-4-ylmethyl)-amino]-ethyl}]1-methyl-1H-imidazole-4-sulfonamide]",0.7,–,–
"Cn1cnc(S(=O)(=O)N(CCN(Cc2cncn2C)c2ccc(C#N)cc2F)CC2CCN(c3ncccn3)CC2)c1 [compound 19f, [N-{2-[(2-Fluoro-4-cyanophenyl)-(3-methyl-3H-imidazol-4-ylmethyl)-amino]-ethyl}, N-{N-(2-pyrimidinyl)-piperidin-4-ylmethyl}]1-methyl-1H-imidazole-4-sulfonamide]",>156,–,–
